One test addresses T1, human STING (hSTING) (Homo sapiens, UniProt Q86WV6).
T1 construct: host or cells: HEK-Blue ISG cells (HEK293-derived SEAP reporter line)
Nature of the test: Inhibition test of intracellular human STING (hSTING) pathway using SEAP reporter cells (HEK-Blue ISG), stimulation with Compound 3. It is filed as cell-based. The settings on record: Compound 3 10 nM stimulation, 21 hours. Set-up: hSTING inhibitory activity: scale not given here. In a few lines: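 HEK-Blue ISG cells with IRF-inducible SEAP reporter, pretreated 1 h with compound (final 0.1 to 10 μM), then stimulated with Compound 3 (final 10 nM) for 21 h at 37° C. Supernatant SEAP measured colorimetrically; IC50 from log-concentration regression, normalized to stimulated (100%) and unstimulated (0%) controls.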

Test [1] relates to STING activation (IFN-β production in THP-1 cells). Put plainly: Human IFN-β production inhibition test by cGAMP stimulation in THP-1 cells. It is filed as cell-based. Set-up: IFN-β bioinhibitory activity: scale not given here. Particulars: 2'3'-cGAMP transfection, 18 hours, IFN-β ELISA; for IC50: Homo sapiens, read-out: IFN-β bioinhibitory activity. As for the experimental part:
Human IFN-β production inhibition test by cGAMP stimulation
The inhibitory activity of test compounds against STING activation was evaluated by measuring the amount of IFN-β produced when human monocytic cell line THP-1 cells were stimulated with the endogenous ligand cGAMP.
After seeding THP-1 cells (ATCC) in a 96-well plate, PMA (Santa Cruz Biotechnology) adjusted to a concentration of 100 nM after addition was added, and incubated at 37° C. in a 5% CO2 incubator. It was cultured overnight (RPMI1640 medium containing 10% FBS, 50 U/mL penicillin/50 μg/mL streptomycin). A test compound solution adjusted to a final concentration of 0.001 to 1 μM was added to each well of this plate and cultured for 1 hour in a CO2 incubator (DMSO final concentration 0.1%). 0.12 μg/well of 2′3′-cGAMP (Invivogen, #tlrl-nacga23) was introduced into the cells by transfection using Lipofectamine2000 (Invitrogen) and cultured in a CO incubator for an additional 18 hours. After collecting the culture supernatant from each well, the amount of human IFN-β produced in the culture supernatant was measured by ELISA using R&D human IFN-β Duoset (R&D Systems).
Assuming that the human IFN-β production amount of the test compound-free and cGAMP-added group is 100%, and the human IFN-β production amount of the test compound-free and cGAMP-free group is 0%, the IC50 value was determined by regression analysis of the inhibitory rate determined from the amount of human IFN-β production at each compound concentration and the concentration of the test compound (logarithm).

Counter-ions that a name gives are not always drawn.

T1 sequence (Q86WV6 whole entry H232R): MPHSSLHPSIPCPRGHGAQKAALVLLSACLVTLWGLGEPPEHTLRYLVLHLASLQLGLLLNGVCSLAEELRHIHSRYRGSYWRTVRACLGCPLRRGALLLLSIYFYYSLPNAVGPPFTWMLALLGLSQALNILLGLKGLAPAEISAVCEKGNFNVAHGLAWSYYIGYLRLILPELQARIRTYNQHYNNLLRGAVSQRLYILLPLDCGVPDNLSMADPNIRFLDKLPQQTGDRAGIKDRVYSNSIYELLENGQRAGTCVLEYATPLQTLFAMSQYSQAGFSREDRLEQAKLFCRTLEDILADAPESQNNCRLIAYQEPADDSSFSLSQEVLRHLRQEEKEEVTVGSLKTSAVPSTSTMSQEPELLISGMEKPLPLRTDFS

Regarding `Fc1ccc(Oc2ccc3nc(Nc4c[nH]c5ccc(Cl)cc45)n(C4CC4)c3c2)cc1` [Embodiment 196, N-(5-Chloro-1H-indol-3-yl)-1-cyclopropyl-6-(4-fluorophenoxy)-1H-benzo[d]imidazol-2-amine], on human STING (hSTING), the hSTING inhibitory activity result is on record as “* * *”. Besides, in test [1], the IFN-β bioinhibitory activity entry is “* *”.

For `Cn1c(Nc2c[nH]c3ccc(Cl)cc23)nc2cc(C(F)(F)F)c(Cl)cc21` [Embodiment 250, 6-Chloro-N-(5-chloro-1H-indol-3-yl)-1-methyl-5-(trifluoromethyl)-1H-benzo[d]imidazol-2-amine], the hSTING inhibitory activity result on human STING (hSTING) is listed as “* *”. In addition, in test [1], the IFN-β bioinhibitory activity result is “* *”.

As for `Cc1ccc2[nH]c(Nc3c[nH]c4ccc(Cl)nc34)nc2c1` [Embodiment 123, N-(5-chloro-1H-pyrrolo[3,2-b]pyridin-3-yl)-5-methyl-1H-benzo[d] imidazol-2-amine], the hSTING inhibitory activity entry at human STING (hSTING) was “* * *”. Further, the IC50 in test [1] fell in the range of 100 to 1000 nM.

On to `Fc1ccc(Oc2ccc3nc(Nc4c[nH]c5ccc(Cl)nc45)n(C4CC4)c3c2)cc1` [Embodiment 187, N-(5-chloro-1H-pyrrolo[3,2-b]pyridin-3-yl)-1-cyclopropyl-6-(4-fluorophenoxy)-1H-benzo[d] imidazole-2-amine], for which the hSTING inhibitory activity result on human STING (hSTING) was “* *”. Besides, the IC50 in test [1] was 100 to 1000 nM.

Consider `Clc1ccc2[nH]cc(Nc3nc4c(N5CCCCC5)cccc4[nH]3)c2n1` [Embodiment 127, N-(5-Chloro-1H-pyrrolo[3,2-b]pyridin-3-yl)-4-(piperidin-1-yl)-1H-benzo[d]imidazol-2-amine], for which, on human STING (hSTING), the hSTING inhibitory activity result is reported as “* *”. In addition, the IFN-β bioinhibitory activity result in test [1] is given as “* *”.

For the compound `c1ccc(Oc2ccc3[nH]c(Nc4c[nH]c5c(-c6ccccc6)ccnc45)nc3c2)cc1` [Embodiment 54, 5-phenoxy-N-(7-phenyl-1H-pyrrolo[3,2-b]pyridin-3-yl)-1H-benzo[d]imidazol-2-amine], the hSTING inhibitory activity result at human STING (hSTING) is given as “* *”. Besides, the IC50 in test [1] is at least 1000 nM.

In the case of `CCO/C=C/c1ccc2[nH]c(Nc3c[nH]c4ccc(Cl)nc34)nc2c1` [Embodiment 114, (E)-N-(5-chloro-1H-pyrrolo[3,2-b]pyridin-3-yl)-5-(2-ethoxyvinyl)-1H-benzo[d]imidazol-2-amine], the hSTING inhibitory activity entry at human STING (hSTING) is recorded as “* * *”. Also, the IC50 in test [1] is at least 1000 nM.

`FC(F)(F)c1cccc2[nH]c(Nc3c[nH]c4ccc(Br)nc34)nc12` [Embodiment 89, N-(5-bromo-1H-pyrrolo[3,2-b]pyridin-3-yl)-4-(trifluoromethyl)-1H-benzo[d]imidazol-2-amine]: the hSTING inhibitory activity result on human STING (hSTING) is “* * *”. For the same compound, in test [1], the IC50 lay in the range of 100 to 1000 nM.

With `CC(C)Cc1ccc2[nH]c(Nc3c[nH]c4ccc(Cl)nc34)nc2c1` [Embodiment 131, N-(5-Chloro-1H-pyrrolo[3,2-b]pyridin-3-yl)-5-isobutyl-1H-benzo [d]imidazol-2-amine formate], on human STING (hSTING), the hSTING inhibitory activity entry is “* *”. In addition, the IFN-β bioinhibitory activity entry in test [1] is on record as “* *”.

On to `Brc1ccc2[nH]cc(Nc3nc4cc(Oc5ccccc5)ccc4[nH]3)c2n1` [Example 12, N-(5-bromo-1H-pyrrolo[3,2-b]pyridin-3-yl)-5-phenoxy-1H-benzo[d]imidazol-2-amine], for which, on human STING (hSTING), the hSTING inhibitory activity entry is “* *”. Besides, the IC50 in test [1] lay within 100 to 1000 nM.

For `C[Si](C)(C)C#Cc1ccc2[nH]c(Nc3c[nH]c4ccc(Br)nc34)nc2c1` [Embodiment 59, N-(5-bromo-1H-pyrrolo[3,2-b]pyridin-3-yl)-5-[(trimethylsilyl)ethynyl]-1H-benzo[d]imidazol-2-amine], the hSTING inhibitory activity result on human STING (hSTING) is on record as “* * *”. Besides, the IFN-β bioinhibitory activity result in test [1] is reported as “* *”.

Turning to `Cn1c(Nc2c[nH]c3ccc(Br)cc23)nc2ccccc21` [Example 18, N-(5-bromo-1H-indol-3-yl)-1-methyl-1H-benzo[d]imidazol-2-amine], the hSTING inhibitory activity entry on human STING (hSTING) is given as “* *”. Further, the IC50 in test [1] is at least 1000 nM.

As for `CCc1ccc2[nH]cc(Nc3nc4cc(Oc5ccccc5)ccc4[nH]3)c2n1` [Embodiment 103, N-(5-ethyl-1H-pyrrolo[3,2-b]pyridin-3-yl)-5-phenoxy-1H-benzo [d]imidazol-2-amine], the hSTING inhibitory activity entry on human STING (hSTING) is “* *”. Further, in test [1], the IC50 was in the range of 100 to 1000 nM.

As to `COc1ccnc2c(Nc3nc4cc(Oc5ccccc5)ccc4[nH]3)c[nH]c12` [Embodiment 77, N-(7-Methoxy-1H-pyrrolo[3,2-b]pyridin-3-yl)-5-phenoxy-1H-benzo[d]imidazol-2-amine formate], the hSTING inhibitory activity result at human STING (hSTING) is listed as “* *”. Also, the IC50 in test [1] was at least 1000 nM.

Turning to `OCCn1c(Nc2c[nH]c3ccc(Cl)cc23)nc2cc(OC(F)(F)F)ccc21` [Embodiment 245, 2-{2-[(5-Chloro-1H-indol-3-yl)amino]-5-(trifluoromethoxy)-1H-benzo[d]imidazol-1-yl}ethan-1-oar], the hSTING inhibitory activity entry on human STING (hSTING) is on record as “* *”. Also, the IC50 in test [1] fell in the range of 100 to 1000 nM.

As to `Clc1ccc2[nH]cc(Nc3nc4c(Cl)c(Cl)ccc4[nH]3)c2n1` [Embodiment 94, 4,5-dichloro-N-(5-chloro-1H-pyrrolo[3,2-b]pyridin-3-yl)-1H-benzo[d]imidazol-2-amine], at human STING (hSTING), the hSTING inhibitory activity result is given as “* * *”. For the same compound, in test [1], the IC50 lay in the range of 100 to 1000 nM.

Consider `Cn1c(Nc2c[nH]c3ccc(Cl)nc23)nc2cc(Oc3ccccc3)ccc21` [Embodiment 45, N-(5-Chloro-1H-pyrrolo[3,2-b]pyridin-3-yl)-1-methyl-5-phenoxy-1H-benzo[d]imidazol-2-amine], for which the hSTING inhibitory activity entry at human STING (hSTING) is “* *”. In addition, in test [1], the IC50 was 100 to 1000 nM.

With `Clc1ccc2[nH]cc(Nc3nc4cc(OC5CCCCC5)ccc4[nH]3)c2n1` [Embodiment 120, N-(5-Chloro-1H-pyrrolo[3,2-b]pyridin-3-yl)-5-(cyclohexyloxy)-1H-benzo[d]imidazol-2-amine formate], the hSTING inhibitory activity entry on human STING (hSTING) is given as “* * *”. Moreover, the IC50 in test [1] was in the range of 100 to 1000 nM.

As for `OCCCn1c(Nc2c[nH]c3ccc(Cl)cc23)nc2cc(C(F)(F)F)ccc21` [Embodiment 260, 3-{2-[(5-Chloro-1H-indol-3-yl)amino]-5-(trifluoromethyl)-1H-benzo [d]imidazol-1-yl]propan-1-oar], the hSTING inhibitory activity result at human STING (hSTING) is “* *”. Also, the IC50 in test [1] was 100 to 1000 nM.

Regarding `Fc1cc2nc(Nc3c[nH]c4ccc(Cl)nc34)[nH]c2cc1F` [Embodiment 78, N-(5-Chloro-1H-pyrrolo[3,2-b]pyridin-3-yl)-5,6-difluoro-1H-benzo[d]imidazol-2-amine], the hSTING inhibitory activity result on human STING (hSTING) was “* *”. Besides, in test [1], the IC50 is at least 1000 nM.

As to `Cn1c(Nc2c[nH]c3ccc(Cl)cc23)nc2cc(C(F)(F)F)cc(F)c21` [Embodiment 225, N-(5-Chloro-1H-indol-3-yl)-7-fluoro-1-methyl-5-(trifluoromethyl)-1H-benzo[d]imidazol-2-amine], the hSTING inhibitory activity entry on human STING (hSTING) is on record as “* * *”. In test [1], the IFN-β bioinhibitory activity entry is “* *”.

In the case of `Cn1c(Nc2c[nH]c3ccc(Cl)nc23)nc2ccc(Oc3ccc(F)cc3)cc21` [Embodiment 58, N-(5-chloro-1H-pyrrolo[3,2-b]pyridin-3-yl)-6-(4-fluorophenoxy)-1-methyl-1H-benzo[d]imidazol-2-amine], on human STING (hSTING), the hSTING inhibitory activity entry was “* *”. Also, in test [1], the IC50 was in the range of 100 to 1000 nM.

These data come from patent US20240279205A1, “NOVEL BENZIMIDAZOLE DERIVATIVE” (Carna Biosciences, Inc., priority 2020, published 2024).
